Source: article PMC8119466, “A screen of FDA-approved drugs identifies inhibitors of protein tyrosine phosphatase 4A3 (PTP4A3 or PRL-3)” (Scientific Reports, 2021)
Where a name gives a salt, the structure may show the parent alone. Read-outs that look alike come from different tables or passages of the source.

Assays:
Format in all cases: biochemical
recombinant PRL-1 = molecular target: T1, recombinant PRL-1 (Homo sapiens, UniProt Q93096); assay: In vitro phosphatase assay (DiFMUP hydrolysis), PRL-1; further: test concentration or dose not given here
T1 construct: 6xHis (N, cleaved yes); made in house; host or cells: E. coli One Shot BL21 Star
T1 sequence (Q93096 1-173): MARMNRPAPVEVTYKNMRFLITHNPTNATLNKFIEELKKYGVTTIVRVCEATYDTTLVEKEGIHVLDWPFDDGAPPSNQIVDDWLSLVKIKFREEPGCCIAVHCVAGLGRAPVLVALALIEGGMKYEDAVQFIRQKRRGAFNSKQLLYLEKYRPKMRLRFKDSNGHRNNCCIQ

recombinant PRL-2 = molecular target: T2, recombinant PRL-2 (Homo sapiens, UniProt Q12974); assay: In vitro phosphatase assay (DiFMUP hydrolysis), PRL-2;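 further: PRL-2 activity read as DiFMUP hydrolysis after 20 min at room temperature with drug, enzyme first pre-reduced at 4 °C for 20 min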
T2 construct: 6xHis (N, cleaved yes); made in house; host or cells: E. coli One Shot BL21 Star
T2 sequence (Q12974 1-167): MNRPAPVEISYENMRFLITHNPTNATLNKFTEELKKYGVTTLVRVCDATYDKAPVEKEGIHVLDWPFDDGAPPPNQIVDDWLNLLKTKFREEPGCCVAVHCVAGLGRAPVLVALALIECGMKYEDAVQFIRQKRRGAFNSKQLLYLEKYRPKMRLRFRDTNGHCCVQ

recombinant PRL-3 = molecular target: T3, recombinant PRL-3 (Homo sapiens, UniProt O75365); assay: In vitro phosphatase assay (DiFMUP hydrolysis), PRL-3; further: test concentration or dose not given here
T3 construct: 6xHis (N, cleaved yes); made in house; host or cells: E. coli One Shot BL21 Star
T3 sequence (O75365 whole entry): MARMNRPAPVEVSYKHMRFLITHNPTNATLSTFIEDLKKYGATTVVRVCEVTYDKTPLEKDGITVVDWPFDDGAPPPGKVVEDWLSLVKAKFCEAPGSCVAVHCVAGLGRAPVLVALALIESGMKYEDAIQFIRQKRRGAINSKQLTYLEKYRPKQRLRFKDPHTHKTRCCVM

[1] = FDA-approved drug screen, compared to DMSO

SMILES	% Phosphatase Activity (compared to DMSO) PRL-1 (recombinant PRL-1; [1]) [%]	% Phosphatase Activity (compared to DMSO) PRL-2 (recombinant PRL-2; [1]) [%]	% Phosphatase Activity (compared to DMSO) PRL-3 (recombinant PRL-3; [1]) [%]	% Phosphatase Activity (compared to DMSO) PRL-1 (recombinant PRL-1) [%]	% Phosphatase Activity (compared to DMSO) PRL-2 (recombinant PRL-2) [%]	% Phosphatase Activity (compared to DMSO) PRL-3 (recombinant PRL-3) [%]
C=CCNC1=C2C[C@@H](C)C[C@H](OC)[C@H](O)[C@@H](C)/C=C(\C)[C@H](OC(N)=O)[C@@H](OC)/C=C\C=C(/C)C(=O)NC(=CC1=O)C2=O [17-AAG (Tanespimycin)]	86	83	81	–	–	–
CC12CCC(CC1=O)C2(C)C (stereo not drawn) [(+)-Camphor]	116	132	104	–	–	–
CC(C)NC[C@@H](O)COc1ccc(CC(N)=O)cc1 [(R)-(+)-Atenolol]	113	109	74	–	–	–
NC[C@H](CC(=O)O)c1ccc(Cl)cc1 [(R)-baclofen]	95	121	117	–	–	–
CC1(C)CCC(CN2CCN(c3ccc(C(=O)NS(=O)(=O)c4ccc(NCC5CCOCC5)c([N+](=O)[O-])c4)c(Oc4cnc5[nH]ccc5c4)c3)CC2)=C(c2ccc(Cl)cc2)C1 [ABT-199 (GDC-0199)]	68	30	78	–	–	–
CC1(C)CCC(c2ccc(Cl)cc2)=C(CN2CCN(c3ccc(C(=O)NS(=O)(=O)c4ccc(N[C@H](CCN5CCOCC5)CSc5ccccc5)c(S(=O)(=O)C(F)(F)F)c4)cc3)CC2)C1 [ABT-263 (Navitoclax)]	90	75	81	–	–	–
CC(C)c1cc(C(=O)N2Cc3ccc(CN4CCN(C)CC4)cc3C2)c(O)cc1O [AT13387]	98	100	82	–	–	–
C=CC(=O)Nc1cc(Nc2nccc(-c3cn(C)c4ccccc34)n2)c(OC)cc1N(C)CCN(C)C [AZD9291]	88	89	100	–	–	–
Nc1nc(NC2CC2)c2ncn([C@H]3C=C[C@@H](CO)C3)c2n1 [Abacavir sulfate]	88	85	111	–	–	–
NC(=O)c1ncn([C@@H]2O[C@H](CO)[C@@H](O)[C@H]2O)c1N [Acadesine]	91	100	95	–	–	–
C[C@H]1O[C@H](O[C@H]2[C@H](O)[C@@H](O)[C@@H](O[C@H]3[C@H](O)[C@@H](O)C(O)O[C@@H]3CO)O[C@@H]2CO)[C@H](O)[C@@H](O)[C@@H]1N[C@H]1C=C(CO)[C@@H](O)[C@H](O)[C@H]1O (stereo partly drawn) [Acarbose]	94	102	73	–	–	–
CCCC(=O)Nc1ccc(OCC(O)CNC(C)C)c(C(C)=O)c1 (stereo not drawn) [Acebutolol HCl]	105	123	86	–	–	–
CC(=O)OC1CN2CCC1CC2 (stereo not drawn) [Aceclidine HCl]	97	95	85	–	–	–
CC(=O)NC(CCC(N)=O)C(=O)O (stereo not drawn) [Aceglutamide]	107	96	87	–	–	–
COc1ccc2c(c1)c(CC(=O)OCC(=O)O)c(C)n2C(=O)c1ccc(Cl)cc1 [Acemetacin]	93	121	94	–	–	–
CC(=O)Nc1ccccc1 [Acetanilide]	110	110	81	–	–	–
CC(=O)Nc1nnc(S(N)(=O)=O)s1 [Acetazolamide]	91	97	88	–	–	–
CC(=O)NO [Acetohydroxamic acid]	91	111	75	–	–	–
CC(=O)OCC[N+](C)(C)C [Acetylcholine Chloride]	87	97	95	–	–	–
CC(=O)N[C@@H](CS)C(=O)O [Acetylcysteine]	89	99	70	–	–	–

SMILES	% Phosphatase Activity (compared to DMSO) PRL-1 (recombinant PRL-1; [1]) [%]	% Phosphatase Activity (compared to DMSO) PRL-2 (recombinant PRL-2; [1]) [%]	% Phosphatase Activity (compared to DMSO) PRL-3 (recombinant PRL-3; [1]) [%]	% Phosphatase Activity (compared to DMSO) PRL-1 (recombinant PRL-1) [%]	% Phosphatase Activity (compared to DMSO) PRL-2 (recombinant PRL-2) [%]	% Phosphatase Activity (compared to DMSO) PRL-3 (recombinant PRL-3) [%]
CC(=O)NC(CC(C)C)C(=O)O (stereo not drawn) [Acetylleucine]	110	99	89	–	–	–
Nc1nc2c(ncn2COCCO)c(=O)[nH]1 [Aciclovir]	85	99	89	–	–	–
Cc1cnc(C(=O)O)c[n+]1[O-] [Acipimox]	97	102	95	–	–	–
COc1cc(C)c(/C=C/C(C)=C/C=C/C(C)=C/C(=O)O)c(C)c1C [Acitretin]	83	87	62	–	–	–
O=C(O[C@H]1C[N+]2(CCCOc3ccccc3)CCC1CC2)C(O)(c1cccs1)c1cccs1 [Aclidinium Bromide]	–	–	–	106	117	90
COc1ccc(-c2ccc3cc(C(=O)O)ccc3c2)cc1C12CC3CC(CC(C3)C1)C2 [Adapalene]	183	141	68	–	–	–
CC(C)(C)C(=O)OCOP(=O)(COCCn1cnc2c(N)ncnc21)OCOC(=O)C(C)(C)C [Adefovir Dipivoxil]	92	88	74	–	–	–
Nc1ncnc2c1ncn2[C@@H]1O[C@H](CO)[C@@H](O)[C@H]1O [Adenosine]	100	93	87	–	–	–
CNCC(=O)c1ccc(O)c(O)c1.Cl [Adrenalone HCl]	91	91	72	–	–	–
CN(C)C/C=C/C(=O)Nc1cc2c(Nc3ccc(F)c(Cl)c3)ncnc2cc1O[C@H]1CCOC1.O=C(O)/C=C\C(=O)O.O=C(O)/C=C\C(=O)O [Afatinib (BIBW2992) Dimaleate]	97	94	101	–	–	–
COc1ccc2cccc(CCNC(C)=O)c2c1 [Agomelatine]	92	98	76	–	–	–
CCC[S+]([O-])c1ccc2[nH]c(NC(=O)OC)nc2c1 (stereo not drawn) [Albendazole Oxide]	93	100	95	–	–	–
CCCSc1ccc2nc(NC(=O)OC)[nH]c2c1 [Albendazole]	–	–	–	102	88	78
CN1CCC(=C2c3ccccc3CCn3c(C=O)cnc32)CC1 [Alcaftadine]	98	89	85	–	–	–
NCCCC(O)(P(=O)(O)O)P(=O)(O)O [Alendronate]	–	–	–	110	93	79
C=C1/C(=C\C=C2/CCC[C@]3(C)[C@@H]([C@H](C)CCCC(C)C)CC[C@@H]23)C[C@@H](O)C[C@@H]1O [Alfacalcidol]	99	82	75	–	–	–
COc1cc2nc(N(C)CCCNC(=O)C3CCCO3)nc(N)c2cc1OC (stereo not drawn) [Alfuzosin HCl]	590	536	290	–	–	–
C=CCc1cc(OC)c(O)c(C(=O)NCCO)c1 [Alibendol]	90	109	81	–	–	–
COc1cc(Nc2ncc3c(n2)-c2ccc(Cl)cc2C(c2c(F)cccc2OC)=NC3)ccc1C(=O)O [Alisertib (MLN8237)]	85	96	81	–	–	–
COCCCOc1cc(C[C@@H](C[C@H](N)[C@@H](O)C[C@H](C(=O)NCC(C)(C)C(N)=O)C(C)C)C(C)C)ccc1OC [Aliskiren Hemifumarate]	102	122	102	–	–	–
